According to patent US12291519B2, “2-hydroxycycloalkane-1-carbamoyl” (Idorsia Pharmaceuticals Ltd, priority 2019, dated 2025):

Experiments:
human Gal-3 (hGal-3) = human Gal-3 (hGal-3) (Homo sapiens (Human), UniProt P17931); experiment: Competitive binding assay: biotinylated hGal-3 binding to microplate-adsorbed asialofetuin (ASF); settings: Activity on hGal-3; binding of biotinylated hGal-3 to ASF-coated plates; mean values
How it was run: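 Serially diluted compounds competed with biotinylated human Gal-3 for binding to plate-adsorbed asialofetuin over 3 h at 4 °C. Bound Gal-3 was detected with streptavidin-peroxidase (80 ng/mL, 1 h, 4 °C) and ABTS substrate. IC50 values are means of several measurements.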

human Gal-1 (hGal-1) = experiment: Competitive binding assay: biotinylated hGal-1 binding to microplate-adsorbed asialofetuin (ASF); settings: Activity on hGal-1; binding of biotinylated hGal-1 to ASF-coated plates; mean values
How it was run: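 Inhibition measured as loss of hGal-1 (biotinylated, 300–1000 ng/mL, wild type or Cys→Ser mutant) binding to adsorbed asialofetuin over 3 h at 4 °C. Bound lectin detected with streptavidin-HRP and ABTS (410 nm, 30–45 min); IC50 values averaged across repeat measurements.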

Sequence of human Gal-1 (hGal-1) (P09382 2-135 limits assumed): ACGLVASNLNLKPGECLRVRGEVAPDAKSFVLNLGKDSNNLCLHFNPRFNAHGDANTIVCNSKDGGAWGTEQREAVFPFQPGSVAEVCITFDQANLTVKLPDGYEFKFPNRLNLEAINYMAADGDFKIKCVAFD
Sequence of human Gal-3 (hGal-3) (P17931 whole entry): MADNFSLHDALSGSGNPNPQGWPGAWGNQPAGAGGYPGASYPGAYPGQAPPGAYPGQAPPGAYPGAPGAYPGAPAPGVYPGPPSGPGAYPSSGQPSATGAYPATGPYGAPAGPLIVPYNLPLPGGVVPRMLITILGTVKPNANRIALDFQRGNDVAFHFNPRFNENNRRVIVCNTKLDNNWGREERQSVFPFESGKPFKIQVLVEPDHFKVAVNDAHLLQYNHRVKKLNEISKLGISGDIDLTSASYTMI

Row | IC50 (human Gal-3 (hGal-3)) [nM] | IC50 (human Gal-1 (hGal-1)) [nM] | Structure (SMILES)
1 | 61 | 726 | CO[C@@H]1[C@@H](n2cc(-c3cc(F)cc(Br)c3)nn2)[C@@H](O)[C@@H](CO)O[C@H]1C(=O)N(c1cc(Cl)cc(Cl)c1)[C@H]1CCCC[C@@H]1O [Example 144, (2R,3R,4S,5R,6R)-4-(4-(3-bromo-5-fluorophenyl)-1H-1,2,3-triazol-1-yl)-N-(3,5-dichlorophenyl)-5-hydroxy-N-((1S,2S)-2-hydroxycyclohexyl)-6-(hydroxymethyl)-3-methoxytetrahydro-2H-pyran-2-carboxamide]
2 | 73 | 1320 | CO[C@@H]1[C@@H](n2cc(-c3cc(F)cc(F)c3)nn2)[C@@H](O)[C@@H](CO)O[C@H]1C(=O)N(c1cc(C)cc(C#N)c1)[C@H]1CCCC[C@@H]1O [Example 81, (2R,3R,4S,5R,6R)-N-(3-cyano-5-methylphenyl)-4-(4-(3,5-difluorophenyl)-1H-1,2,3-triazol-1-yl)-5-hydroxy-N-((1S,2S)-2-hydroxycyclohexyl)-6-(hydroxymethyl)-3-methoxytetrahydro-2H-pyran-2-carboxamide]
3 | 231 | 1030 | CO[C@@H]1[C@@H](n2cc(-c3cc(F)c(F)c(F)c3)nn2)[C@@H](O)[C@@H](CO)O[C@H]1C(=O)N(Cc1scnc1C)[C@H]1CCCC[C@@H]1O [Example 36, (2R,3R,4S,5R,6R)-5-hydroxy-N-((1S,2S)-2-hydroxycyclohexyl)-6-(hydroxymethyl)-3-methoxy-N-((4-methylthiazol-5-yl)methyl)-4-(4-(3,4,5-trifluorophenyl)-1H-1,2,3-triazol-1-yl)tetrahydro-2H-pyran-2-carboxamide]
4 | 69 | 863 | CO[C@@H]1[C@@H](n2cc(-c3cc(F)c(F)c(F)c3)nn2)[C@@H](O)[C@@H](CO)O[C@H]1C(=O)N(Cc1sccc1C)[C@H]1CCCC[C@@H]1O [Example 34]
5 | 24 | 1410 | CO[C@@H]1[C@@H](n2cc(-c3cc(F)cc(Cl)c3)nn2)[C@@H](O)[C@@H](CO)O[C@H]1C(=O)N(c1cccc(Cl)c1)[C@H]1CCCC[C@@H]1O [Example 143, (2R,3R,4S,5R,6R)-4-(4-(3-chloro-5-fluorophenyl)-1H-1,2,3-triazol-1-yl)-N-(3-chlorophenyl)-5-hydroxy-N-((1S,2S)-2-hydroxycyclohexyl)-6-(hydroxymethyl)-3-methoxytetrahydro-2H-pyran-2-carboxamide]
6 | 13 | 177 | O=C(CO[C@@H]1[C@@H](n2cc(-c3cc(F)c(F)c(F)c3)nn2)[C@@H](O)[C@@H](CO)O[C@H]1C(=O)N(c1cc(Cl)cc(Cl)c1)[C@H]1CCCC[C@@H]1O)N1CC(O)C1 [Example 128]
7 | 11 | 257 | CO[C@@H]1[C@@H](n2cc(-c3ccc(Cl)c(Cl)c3)nn2)[C@@H](O)[C@@H](CO)O[C@H]1C(=O)N(c1cc(Cl)cc(Cl)c1)[C@H]1CCCC[C@@H]1O [Example 189, (2R,3R,4S,5R,6R)-N-(3,5-dichlorophenyl)-4-(4-(3,4-dichlorophenyl)-1H-1,2,3-triazol-1-yl)-5-hydroxy-N-((1S,2S)-2-hydroxycyclohexyl)-6-(hydroxymethyl)-3-methoxytetrahydro-2H-pyran-2-carboxamide]
8 | 117 | > 100000 | CO[C@@H]1[C@@H](n2cc(-c3cc(F)c(F)c(F)c3)nn2)[C@@H](O)[C@@H](CO)O[C@H]1C(=O)N(c1cccc2ccccc12)[C@H]1CCCC[C@@H]1O [Example 198, (2R,3R,4S,5R,6R)-5-hydroxy-N-((1S,2S)-2-hydroxycyclohexyl)-6-(hydroxymethyl)-3-methoxy-N-(naphthalen-1-yl)-4-(4-(3,4,5-trifluorophenyl)-1H-1,2,3-triazol-1-yl)tetrahydro-2H-pyran-2-carboxamide]
